Activity calls are given as the source filed them.
How the values were obtained:
Estrogen receptor = target: T1, Estrogen receptor (Homo sapiens, UniProt P03372); assay: ERα coactivator recruitment enhancers – biochemical, TR-FRET, ERα LBD, dose response (AID 737)
T1 sequence (P03372 whole entry): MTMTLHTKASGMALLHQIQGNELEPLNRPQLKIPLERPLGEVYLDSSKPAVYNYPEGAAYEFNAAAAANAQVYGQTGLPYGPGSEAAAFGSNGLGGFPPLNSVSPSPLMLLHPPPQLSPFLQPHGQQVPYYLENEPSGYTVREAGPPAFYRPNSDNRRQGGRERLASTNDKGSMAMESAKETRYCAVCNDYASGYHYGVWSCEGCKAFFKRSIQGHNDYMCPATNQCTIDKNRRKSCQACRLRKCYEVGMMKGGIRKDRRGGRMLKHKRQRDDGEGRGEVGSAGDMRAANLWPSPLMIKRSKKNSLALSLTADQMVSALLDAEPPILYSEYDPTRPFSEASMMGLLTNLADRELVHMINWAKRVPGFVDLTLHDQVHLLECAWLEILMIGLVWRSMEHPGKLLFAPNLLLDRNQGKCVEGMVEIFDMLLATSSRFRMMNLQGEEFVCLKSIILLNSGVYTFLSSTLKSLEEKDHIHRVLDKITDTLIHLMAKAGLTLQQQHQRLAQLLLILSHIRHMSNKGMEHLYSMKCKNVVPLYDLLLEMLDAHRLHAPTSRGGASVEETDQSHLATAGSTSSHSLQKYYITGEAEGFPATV

[1] = antiviral protection against BTV-induced cell death – arbovirus, BSR cells, confirmation (AID 1250); type: functional;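 also: protection from viral cytopathic effect measured as cell viability by ATP luminescence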
Cytochrome P450 2C19 = Cytochrome P450 2C19 (Homo sapiens, UniProt P33261); assay: Cytochrome panel assay with activity outcomes. Panel member name: p450-cyp2c19 Compounds with AC50 equal or less than 10 uM are considered active; type: functional; details: read-out: AC50
Estrogen receptor beta = Estrogen receptor beta (Homo sapiens, UniProt Q92731); assay: blockers of SRC-3 recruitment to ERβ – biochemical, ELISA, streptavidin-HRP readout, orthogonal assay, confirmation (AID 1060)
[2] = Luminescence Cell-Based Dose Response to Identify Activators of 5'UTR Stem-Loop Driven Prion Protein mRNA Translation in H4-C Neuroglioblastoma Cells. [Related pubchem assays: 1829 (Project Summary), 1814 (Primary HTS)]; type: functional
[3] = Luminescence Cell-Based Dose Confirmation to Identify Activators of 5'UTR Stem-Loop Driven Alpha-Synuclein mRNA Translation in H4 Neuroglioblastoma Cells. [Related pubchem assays: 1829 (Project Summary), 1814 (Primary HTS)]; type: functional
[4] = Luminescence Cell-Based Dose Response HTS to Identify Activators of Luciferase Translation or Activity in H4 […] Cells. [Related pubchem assays: 1829 (Project Summary), 1814 (Primary HTS)]; type: functional
[5] = Luminescence Cell-Based Dose Response to Identify Activators of Luciferase Translation or Activity in H4-C Neuroglioblastoma Cells. [Related pubchem assays: 1829 (Project Summary), 1814 (Primary HTS)]; type: functional
[6] = target: Heat shock protein HSP 90-alpha (Homo sapiens, UniProt P07900); assay: Luminescence-based dose response biochemical high throughput screening assay for inhibitors of the Heat Shock Protein 90 (HSP90). [Related pubchem assays: 1831 (Summary AID.), 1846 (Confirmation screen.), 1789 (Primary screen.)]
[7] = HCT116 cell viability decrease, GSK3B pretreatment – CellTiter-Glo, IC50, dose response (AID 1117339); type: functional; details: HCT-116
[8] = Reduced DLD-1 viability, concentration-response, CellTiter-Glo luminescence (AID 1117352); type: functional
[9] = SNU-C1 cell viability reduction, dose response, CellTiter-Glo luminescence (AID 1117323); type: functional, cell-based
[10] = cytotoxicity toward HT-29 cells – cell-based, CellTiter-Glo luminescence, IC50, dose response (AID 1117330); type: functional
[11] = target: T2, Polyadenylate-binding protein 1 (Homo sapiens, UniProt P11940); assay: MLLE binding blockers, Cy5 peptide tracer – biochemical, fluorescence polarization, Cy5-PAM2 peptide, secondary, miRNA deadenylation inhibitor project, dose response (AID 602260); type: functional; details: read-out: IC50_Mean
[12] = target: T2, Polyadenylate-binding protein 1; assay: MLLE domain peptide-binding blockers, IC50 – biochemical, fluorescence polarization, FITC-PAM2 peptide, dose response (AID 602259); type: functional; details: read-out: IC50_Mean
[13] = cytotoxicity toward HCT116 cells – cell-based, CellTiter-Glo luminescence, IC50, dose response (AID 1117332); type: functional; details: HCT-116
[14] = cytotoxicity toward Colo320 cells – cell-based, CellTiter-Glo luminescence, IC50, dose response (AID 1117334); type: functional; details: COLO 320
[15] = CellTiter-Glo luminescence survival assay, SW480 colon tumor line, concentration-response curve, half-maximal inhibitory concentration (AID 1117338); type: functional

T2 sequence (P11940 whole entry, the tested form may be a part): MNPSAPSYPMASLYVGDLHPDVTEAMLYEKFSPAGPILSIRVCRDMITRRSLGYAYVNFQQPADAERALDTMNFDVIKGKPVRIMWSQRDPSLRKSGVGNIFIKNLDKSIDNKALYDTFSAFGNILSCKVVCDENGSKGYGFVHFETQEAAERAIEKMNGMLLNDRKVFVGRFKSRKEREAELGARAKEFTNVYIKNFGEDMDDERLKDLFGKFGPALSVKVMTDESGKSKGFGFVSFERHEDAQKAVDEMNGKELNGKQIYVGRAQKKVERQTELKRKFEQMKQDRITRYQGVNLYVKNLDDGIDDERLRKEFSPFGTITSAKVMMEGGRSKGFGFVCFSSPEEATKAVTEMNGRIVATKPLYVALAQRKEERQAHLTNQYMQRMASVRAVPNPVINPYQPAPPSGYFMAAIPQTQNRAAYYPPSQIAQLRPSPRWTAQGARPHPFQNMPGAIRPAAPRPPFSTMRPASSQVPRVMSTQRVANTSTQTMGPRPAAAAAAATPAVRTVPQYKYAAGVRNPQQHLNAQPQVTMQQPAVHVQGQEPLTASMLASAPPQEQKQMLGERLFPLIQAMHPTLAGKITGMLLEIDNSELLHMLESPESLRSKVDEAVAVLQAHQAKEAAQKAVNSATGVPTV
Chain of Cytochrome P450 2C19 (P33261 whole entry): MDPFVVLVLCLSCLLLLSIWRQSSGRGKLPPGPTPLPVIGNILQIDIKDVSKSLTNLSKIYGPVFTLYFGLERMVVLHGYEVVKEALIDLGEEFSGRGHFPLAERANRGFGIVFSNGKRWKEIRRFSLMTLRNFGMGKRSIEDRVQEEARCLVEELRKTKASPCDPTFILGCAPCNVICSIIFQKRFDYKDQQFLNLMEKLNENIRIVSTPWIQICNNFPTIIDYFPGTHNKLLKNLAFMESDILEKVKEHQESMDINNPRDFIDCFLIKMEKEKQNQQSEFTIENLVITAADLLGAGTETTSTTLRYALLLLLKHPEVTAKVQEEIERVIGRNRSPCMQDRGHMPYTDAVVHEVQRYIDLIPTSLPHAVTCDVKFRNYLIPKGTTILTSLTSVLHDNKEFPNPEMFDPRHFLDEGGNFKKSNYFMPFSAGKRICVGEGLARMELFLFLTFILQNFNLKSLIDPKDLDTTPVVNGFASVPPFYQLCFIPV
Chain of Estrogen receptor beta (Q92731 whole entry): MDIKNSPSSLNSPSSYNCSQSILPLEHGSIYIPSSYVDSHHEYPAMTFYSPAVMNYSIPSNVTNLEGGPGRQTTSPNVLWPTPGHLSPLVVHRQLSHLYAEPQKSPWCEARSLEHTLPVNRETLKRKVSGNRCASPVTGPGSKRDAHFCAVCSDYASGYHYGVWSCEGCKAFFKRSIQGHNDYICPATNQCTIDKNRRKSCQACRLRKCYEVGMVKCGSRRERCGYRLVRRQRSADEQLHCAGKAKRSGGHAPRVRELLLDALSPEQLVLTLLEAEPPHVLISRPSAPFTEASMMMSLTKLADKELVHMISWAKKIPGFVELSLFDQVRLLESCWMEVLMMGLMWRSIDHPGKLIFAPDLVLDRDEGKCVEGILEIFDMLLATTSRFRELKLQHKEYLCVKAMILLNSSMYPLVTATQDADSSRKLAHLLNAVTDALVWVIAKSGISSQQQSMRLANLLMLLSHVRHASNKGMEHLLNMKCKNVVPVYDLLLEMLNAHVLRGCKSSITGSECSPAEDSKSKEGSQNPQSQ

CCOc1ccc(CC2SC(Nc3ccccn3)=NC2=O)cc1 (stereo not drawn)
EC50 (Estrogen receptor): 25.1 µM (active)

O=C(Nc1sc2c(c1C(=O)O)CCCCC2)c1cccs1
IC50 [1]: 27.6 µM (active)

Nc1cc(-c2nnn[nH]2)ccc1F
AC50 (Cytochrome P450 2C19): 28.2 µM (inconclusive)
IC50 (Estrogen receptor beta): 859 nM (not active)

CC(C)c1ccc(C(=O)NNC(=O)C2C3CCC(C3)C2C(=O)O)cc1 (stereo not drawn)
EC50 [2]: 281 nM (active)
EC50 [3]: 232 nM (active)
EC50 [4]: < 100 nM (inconclusive)
EC50 [5]: 301 nM (active)

O=C(O)c1cc(N/N=C/c2c[nH]c3ccccc23)ccc1Cl
IC50 [6]: > 2 µM (active)

COP(=S)(OC)Oc1ccc(Sc2ccc(OP(=S)(OC)OC)cc2)cc1 [TEMEFOS]
IC50 [7]: > 20 µM (inactive)
IC50 [8]: > 20 µM (inactive)
IC50 [9]: 3.03 µM (active)
IC50 [10]: > 20 µM (inactive)
IC50 [11]: > 66 µM (inactive)
IC50 [12]: > 66 µM (inactive)
IC50 [13]: > 20 µM (inactive)
IC50 [14]: > 20 µM (inactive)
IC50 [15]: 11.8 nM (active)

Reference: ChEMBL document CHEMBL1201862, “PubChem BioAssay data set” (2004)
